What all share (type): toxicity, cell-based
Data set [1] is described as follows: MMV: MTT Cytotoxicity Assay Day 3 pi, U87-CD4-CCR5 cells, % cell death @ 5mM compound. The conditions noted are these: human, u87-cd4-ccr5, 5000 µM.
The nature of data set [2]: MMV: MTT Cytotoxicity Assay Day 3 pi, U87-CD4-CXCR4 cells, % cell death @ 5mM compound. The conditions noted are these: human, u87-cd4-cxcr4, 5000 µM.
Data set [3] is described as follows: MMV: MTT Cytotoxicity Assay Day 7 pi of Assay #6 (compound washed out Day 1 pi), U87-CD4-CCR5 cells, % cell death @ 5mM compound. The conditions noted are these: human, u87-cd4-ccr5, 5000 µM.
Data set [4] is described as follows: MMV: MTT Cytotoxicity Assay Day 7 pi of Assay #7 (compound washed out Day 1 pi), U87-CD4-CXCR4 cells, % cell death @ 5mM compound. The conditions noted are these: human, u87-cd4-cxcr4, 5000 µM.
Data set [5] can be described thus: MMV: MTT Cytotoxicity Assay Day 7 pi of Assay #10 (NO washout), U87-CD4-CCR5 cells, % cell death @ 5mM compound. The conditions noted are these: human, u87-cd4-ccr5, 5000 µM.
Data set [6] is described as follows: MMV: MTT Cytotoxicity Assay Day 7 pi of Assay #11 (NO washout), U87-CD4-CXCR4 cells, % cell death @ 5mM compound. The conditions noted are these: human, u87-cd4-cxcr4, 5000 µM.

With `CCOc1ccccc1CN1CCc2nc3cc(C(C)(C)C)nn3c(O)c2C1`, the “% Cell Death” value in data set [1] is given as 100; in data set [2], 21; in data set [3] it was -7; in data set [4] it was 3; in data set [5] it was 95; in data set [6] it was 98.
For the compound `CC(C)(C)c1ccc(C(=O)Nc2nc3ccccc3s2)cc1`, the “% Cell Death” value in data set [1] was 1; in data set [2] it was 12; in data set [3], 20; in data set [4], -23; in data set [5], 24; in data set [6], -30.
For `Cc1cc(Nc2ccc(C)c(Cl)c2)n2nc(C(F)(F)F)nc2n1`, the “% Cell Death” value in data set [1] is recorded as 11; in data set [2], 28; in data set [3], -35; in data set [4] it was -28; in data set [5], 42; in data set [6] it was 10.
On to `O=c1c2c([nH]c3ccccc13)CCCC2`, for which the “% Cell Death” value in data set [1] is reported as 9; in data set [2], 33; in data set [3], 7; in data set [4] it was -18; in data set [5] it was -11; in data set [6], -44.
As to `CCOc1c(Cl)cc(CNC(C)C(O)c2ccccc2)cc1OC` (stereo not given), the “% Cell Death” value in data set [1] was -4; in data set [2], 22; in data set [3], 0; in data set [4], -15; in data set [5], 98; in data set [6] it was -28.
Regarding `CCOC(=O)C1CCN(C(=O)CN2C(=O)c3ccccc3C2c2c[nH]c3ccccc23)CC1` (stereo not given), the “% Cell Death” value in data set [1] is listed as 107; in data set [2], 35; in data set [3], 52; in data set [4], 39; in data set [5], 109; in data set [6] it was 112.
`CCN1CCN(c2c(C(=O)c3ccccc3)cnc3cc(OC)c(OC)cc23)CC1`: the “% Cell Death” value in data set [1] is recorded as 43; in data set [2], 85; in data set [3], 23; in data set [4], -11; in data set [5] it was 47; in data set [6], 99.
As for `COc1ccc2nc(N)nc(C)c2c1`, the “% Cell Death” value in data set [1] is 15; in data set [2] it was 34; in data set [3], -35; in data set [4], -3; in data set [5], 17; in data set [6], 15.
Consider `CN1C=C(c2ccc3ccccc3n2)C(c2c[nH]c3ccccc23)c2ccccc21` (stereo not given), for which the “% Cell Death” value in data set [1] is 94; in data set [2], 46; in data set [3] it was 13; in data set [4], 38; in data set [5], 161; in data set [6], 0.
For `CCOc1cccc(C(=O)Nc2ccc(-c3nc4ccccc4[nH]3)cc2)c1`, the “% Cell Death” value in data set [1] is reported as -33; in data set [2], 46; in data set [3], 8; in data set [4], -23; in data set [5], 6; in data set [6], 65.
On to `O=C(Nc1ccc(N2CCN(Cc3ccccc3)CC2)cc1)c1cccs1.O=C(O)C(F)(F)F`, for which the “% Cell Death” value in data set [1] is reported as -2; in data set [2], 55; in data set [3], 4; in data set [4], -26; in data set [5], 124; in data set [6], 28.
For `COc1ccc(CN2CCCC(C(=O)c3ccc(C(F)(F)F)cc3)C2)c(O)c1` (stereo not given), the “% Cell Death” value amounted to 107 in data set [1]; 89 in data set [2]; 104 in data set [3]; 97 in data set [4]; 105 in data set [5]; 109 in data set [6].
Regarding `O=C(NC1CCCCC1)C(c1cccs1)N(CCc1ccccc1)C(=O)c1ccco1` (stereo not given), the “% Cell Death” value was 93 in data set [1]; 54 in data set [2]; 90 in data set [3]; 61 in data set [4]; 90 in data set [5]; 97 in data set [6].
As for `COc1cccc(C(=O)Nc2ccc(-c3nc4ccccc4[nH]3)cc2)c1`, the “% Cell Death” value was found to be 27 in data set [1]; 39 in data set [2]; 3 in data set [3]; 7 in data set [4]; 34 in data set [5]; 35 in data set [6].
`COc1ccc(C(=O)NC(c2ccc(Cl)cc2Cl)c2cc(Cl)c3cccnc3c2O)cc1` (stereo not given): the “% Cell Death” value in data set [1] was determined as 42; in data set [2], 58; in data set [3], 1; in data set [4], 18; in data set [5], 84; in data set [6], 102.
Turning to `CCOC(=O)C1(Cc2ccccc2)CCN(Cc2cccc(OC)c2O)CC1`, the “% Cell Death” value in data set [1] is given as 0; in data set [2], 29; in data set [3] it was 15; in data set [4] it was -16; in data set [5] it was 21; in data set [6], -36.
Turning to `COc1cc(C(=O)ON=C(N)Cc2cccc3ccccc23)cc(OC)c1OC`, the “% Cell Death” value in data set [1] is 14; in data set [2], 32; in data set [3], -13; in data set [4], 4; in data set [5], 100; in data set [6], -15.
Turning to `OCCNc1nc(Nc2ccc(Cl)c(Cl)c2)nc2ccccc12`, the “% Cell Death” value is given as 41 in data set [1]; 30 in data set [2]; -18 in data set [3]; -3 in data set [4]; 51 in data set [5]; -59 in data set [6].
Consider `FC(F)(F)c1cccc(CNC2CCN(CCc3ccccc3)CC2)c1`, for which the “% Cell Death” value in data set [1] is on record as -16; in data set [2] it was 31; in data set [3], 30; in data set [4] it was -15; in data set [5], -16; in data set [6] it was 24.
As to `CCN(CC)CCCNc1nc(-c2ccc(Cl)cc2)nc2ccccc12`, the “% Cell Death” value in data set [1] was -18; in data set [2] it was 13; in data set [3], 13; in data set [4], 18; in data set [5], 18; in data set [6] it was -10.
As to `O=C(NNc1cc(N2CCCC2)nc(N2CCCC2)n1)c1ccccc1`, the “% Cell Death” value in data set [1] is 61; in data set [2], 29; in data set [3] it was 15; in data set [4], 53; in data set [5], 27; in data set [6] it was 8.
Take `CCOc1ccc2nc(C)cc(Nc3ccc(Br)cc3)c2c1`: the “% Cell Death” value in data set [1] is reported as 82; in data set [2], 64; in data set [3], 26; in data set [4], 72; in data set [5], 108; in data set [6], 106.
As to `Cc1ccc(-c2cc3c(nn2)-c2ccccc2C3=O)cc1`, the “% Cell Death” value in data set [1] is 46; in data set [2], 57; in data set [3] it was 48; in data set [4], 58; in data set [5], 106; in data set [6], 96.
For `O=c1cc(NC2CCN(CCCc3ccccc3)CC2)c2cc(Cl)ccc2o1`, the “% Cell Death” value in data set [1] was 16; in data set [2], 19; in data set [3], -6; in data set [4], 37; in data set [5] it was 31; in data set [6], -41.
Take `COc1ccc(C2N(C)c3ccccc3N2C)cc1`: the “% Cell Death” value is given as -7 in data set [1]; -15 in data set [2]; 16 in data set [3]; -14 in data set [4]; 3 in data set [5]; 30 in data set [6].
As to `CCOC(=O)c1c(C)n(-c2ccc(Cl)cc2)c2ccc(OC(=O)C=Cc3ccccc3)cc12`, the “% Cell Death” value in data set [1] is listed as 18; in data set [2], 26; in data set [3], 4; in data set [4] it was -5; in data set [5] it was 2; in data set [6] it was 51.
With `O=C(NCC1Cc2cccc(-c3ccncc3)c2O1)c1csc2c1CCCC2` (stereo not given), the “% Cell Death” value was 4 in data set [1]; 2 in data set [2]; 7 in data set [3]; -22 in data set [4]; 17 in data set [5]; 60 in data set [6].
`COc1ccc(C2c3ccc4ccccc4c3Oc3ncn(CCCn4ccnc4)c(=N)c32)cc1OC` (stereo not given): the “% Cell Death” value in data set [1] is 39; in data set [2], 38; in data set [3] it was -22; in data set [4] it was -25; in data set [5] it was -6; in data set [6], -30.
As for `COc1ccc(C)c2sc(N(Cc3cccnc3)C(=O)c3ccc(C#N)cc3)nc12`, the “% Cell Death” value is given as -7 in data set [1]; 24 in data set [2]; -1 in data set [3]; -6 in data set [4]; 13 in data set [5]; -39 in data set [6].
Regarding `COc1ccc(C=C2SC(=N)N(c3ccccc3OC)C2=O)cc1`, the “% Cell Death” value in data set [1] is on record as 100; in data set [2] it was 101; in data set [3], 100; in data set [4], 95; in data set [5], 143; in data set [6], 93.

The values are drawn from ChEMBL document CHEMBL3301472, “MMV Malaria Box HIV and cytotoxicity screening”.
